# Assay results taken from patent EP2931723B1, “NEW BICYCLIC COMPOUNDS AND THEIR USE AS ANTIBACTERIAL AGENTS AND -LACTAMASE INHIBITORS” (Fedora Pharmaceuticals Inc., priority 2012, dated 2014).
# Columns and labels:
# Test in all cases: MIC, antibacterial and synergistic activity
# Type in all cases: cell-based
# K. pneumo JMI 2674 [1] = conditions: K. pneumo JMI 2674 (CTX-M15 (ESBL)); substance alone
# K.pneumo JMI 4109 [2] = conditions: K.pneumo JMI 4109 (SHV-1, SHV-12); substance alone
# E. coli JMI 10767 [3] = conditions: E. coli JMI 10767 (Wt)
# E.coli JMI 4103 = E.coli JMI 4103 (KPC-2, Tem-1, CMY-Type)
# E. coli ATCC 25922 = E. coli ATCC 25922 (Wt)
# K. pneumo JMI 2674 [4] = conditions: K. pneumo JMI 2674 (CTX-M15 (ESBL))
# Outline: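 Antibacterial activity was assessed as minimum inhibitory concentrations against a β-lactamase-producing bacterial strain. Each test inhibitor was combined with an antibiotic, with the inhibitor held at a fixed 4 µg/mL, to determine whether it acted synergistically and restored the antibiotic's effect against the resistant organism.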
# E. coli JMI 10770 [5] = conditions: E. coli JMI 10770 (CTX-M15 (Hyper ESBL))
# Protocol: (§1) In the Tables 10 - 12, compounds herein disclosed were tested in combination with various antibiotics against metallo β-lactamase producing bacteria. Table 3: Synergy of the inhibitor Ex. 1 (4 µg/mL) in combination with antibiotics
# P. aerug JMI 2686 = P. aerug JMI 2686 (KPC-2 (Cpase))
# Outline: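 This antibacterial synergy assay measured the minimum inhibitory concentration of antibiotics combined with the disclosed inhibitor compounds. The inhibitor was held at 4 µg/mL throughout. The aim was to see whether the added compound strengthened the antibiotic's action against the tested bacteria.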
# K. pneumo JMI 2699 = K. pneumo JMI 2699 (VIM-1, CTX-M3)
# Outline: (§2)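 MICs were measured for antibiotics combined with the test inhibitor, held at a fixed 4 µg/mL, against metallo β-lactamase-producing clinical isolates.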
# K. pneumo JMI 2673 [6] = conditions: K. pneumo JMI 2673 (CTX-M14 (ESBL))
# Outline: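 Antibacterial synergy was assessed by testing a β-lactamase inhibitor compound in combination with antibiotics. The inhibitor was held at a fixed concentration of 4 µg/mL, and the minimum inhibitory concentration of the partner antibiotic was determined in its presence.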
# E. coli JMI 2665 = tested on: E. coli JMI 2665
# Protocol: as §1
# E. coli JMI 10768 = E. coli JMI 10768 (CTX-M15 (Weak ESBL))
# Protocol: as §1
# E. coli JMI 2671 = tested on: E. coli JMI 2671
# Outline: as §2
# E. coli JMI 10767 [7] = conditions: E. coli JMI 10767 (Wt); remark: listed apart in the source
# Protocol: as §1
# K.pneumo JMI 4109 [8] = conditions: K.pneumo JMI 4109 (SHV-1, SHV-12)
# Outline: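 Antibacterial synergy was assessed by pairing each inhibitor compound, at a constant concentration of 4 µg/mL, with β-lactam antibiotics. The combinations were run against bacterial strains that produce β-lactamases, and the readout was the minimum inhibitory concentration of the antibiotic in the presence of the inhibitor.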
# K. pneumo JMI 4088 = K. pneumo JMI 4088 (KPC-3 (Cpase))
# Outline: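 The compound was tested for synergy by combining it with antibiotics and measuring minimum inhibitory concentrations against β-lactamase producing bacteria. The inhibitor was present at a fixed concentration of 4 µg/mL together with the partner antibiotic, and MIC values were recorded.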
# K. pneumo JMI 2673 [9] = conditions: K. pneumo JMI 2673 (CTX-M14 (ESBL)); substance alone
# K. pneumo JMI 2681 = K. pneumo JMI 2681 (Oxa-48 (Cpase))
# E. cloacae JMI 36 = E. cloacae JMI 36 (P99)
# K. pneumo JMI 2693 = K. pneumo JMI 2693 (NDM-1 (Cpase))
# Protocol: (§3) In the Tables 10 - 12, compounds herein disclosed were tested in combination with various antibiotics against metallo β-lactamase producing bacteria.
# E. coli JMI 2692 = E. coli JMI 2692 (NDM-1, TEM-1, CTX-M-15)
# Protocol: as §3
# E. coli JMI 10770 [10] = conditions: Escherichia coli, JMI10770; E. coli JMI 10770 (CTX-M15 (Hyper ESBL)); substance alone
# [11] = Meropenem + inhibitor at 4 µg/mL
# [12] = Aztreonam + inhibitor at 4 µg/mL
# [13] = Ceftazidime + inhibitor at 4 µg/mL
smiles,measurement,setting,value
"NCCONC(=O)[C@@H]1CC[C@@H]2CN1C(=O)N2OS(=O)(=O)O [Ex. 3, (2S,5R)-N-(2-Aminoethoxy)-7-oxo-6-(sulfooxy)-1,6-diazabicyclo[3.2.1]octane-2-carboxamide]",MIC,K. pneumo JMI 2674 [1],> 16 µg/mL
same,MIC,K.pneumo JMI 4109 [2],2 µg/mL
same,MIC Meropenem + inhibitor,E. coli JMI 10767 [3]; [11],≤0.0312 µg/mL
same,MIC,"E. coli JMI 10767 [3]; Escherichia coli, JMI10767, substance alone",2 µg/mL
same,MIC Aztreonam + inhibitor,E.coli JMI 4103; [12],≤0.062 µg/mL
same,MIC Ceftazidime + inhibitor,E.coli JMI 4103; [13],≤0.25 µg/mL
same,MIC Meropenem + inhibitor,E.coli JMI 4103; [11],≤0.0312 µg/mL
same,MIC,"E.coli JMI 4103; Escherichia coli, JMI4103, substance alone",4 µg/mL
same,MIC Aztreonam + inhibitor,E. coli ATCC 25922; [12],≤0.062 µg/mL
same,MIC Ceftazidime + inhibitor,E. coli ATCC 25922; [13],≤0.25 µg/mL
same,MIC Meropenem + inhibitor,E. coli ATCC 25922; [11],≤0.0312 µg/mL
same,MIC,"E. coli ATCC 25922; Escherichia coli, ATCC25922, substance alone",2 µg/mL
same,MIC Aztreonam + inhibitor,K. pneumo JMI 2674 [4]; [12],0.5 µg/mL
same,MIC Ceftazidime + inhibitor,K. pneumo JMI 2674 [4]; [13],≤0.25 µg/mL
same,MIC Meropenem + inhibitor,K. pneumo JMI 2674 [4]; [11],0.125 µg/mL
same,MIC Aztreonam + inhibitor,E. coli JMI 10770 [5]; [12],8 µg/mL
same,MIC Ceftazidime + inhibitor,E. coli JMI 10770 [5]; [13],2 µg/mL
same,MIC Meropenem + inhibitor,E. coli JMI 10770 [5]; [11],0.062 µg/mL
same,MIC Aztreonam + inhibitor,P. aerug JMI 2686; [12],>4 µg/mL
same,MIC Ceftazidime + inhibitor,P. aerug JMI 2686; [13],16 µg/mL
same,MIC Meropenem + inhibitor,P. aerug JMI 2686; [11],>2 µg/mL
same,MIC Aztreonam + inhibitor,K. pneumo JMI 2699; [12],≤0.062 µg/mL
same,MIC Ceftazidime + inhibitor,K. pneumo JMI 2699; [13],≤0.25 µg/mL
same,MIC Meropenem + inhibitor,K. pneumo JMI 2699; [11],≤0.0312 µg/mL
same,MIC,"K. pneumo JMI 2699; substance alone, read-out: MIC",4 µg/mL
same,MIC Aztreonam + inhibitor,K. pneumo JMI 2673 [6]; [12],0.125 µg/mL
same,MIC Ceftazidime + inhibitor,K. pneumo JMI 2673 [6]; [13],≤0.25 µg/mL
same,MIC Meropenem + inhibitor,K. pneumo JMI 2673 [6]; [11],≤0.0312 µg/mL
same,MIC Aztreonam + inhibitor,"E. coli JMI 2665; E. coli JMI 2665 (CMY-2 (Plasmid Cpase)), Aztreonam + inhibitor at 4 µg/mL",≤0.062 µg/mL
same,MIC Ceftazidime + inhibitor,"E. coli JMI 2665; E. coli JMI 2665 (CMY-2 (Plasmid Cpase)), Ceftazidime + inhibitor at 4 µg/mL",≤0.25 µg/mL
same,MIC,"E. coli JMI 2665; Escherichia coli, JMI2665",2 µg/mL
same,MIC Aztreonam + inhibitor,E. coli JMI 10768; [12],≤0.062 µg/mL
same,MIC Ceftazidime + inhibitor,E. coli JMI 10768; [13],≤0.25 µg/mL
same,MIC,"E. coli JMI 10768; Escherichia coli, JMI10768, substance alone",4 µg/mL
same,MIC Aztreonam + inhibitor,"E. coli JMI 2671; E. coli JMI 2671 (VIM-19 (Cpase)), Aztreonam + inhibitor at 4 µg/mL",≤0.062 µg/mL
same,MIC Ceftazidime + inhibitor,"E. coli JMI 2671; E. coli JMI 2671 (VIM-19 (Cpase)), Ceftazidime + inhibitor at 4 µg/mL",≤0.25 µg/mL
same,MIC Meropenem + inhibitor,"E. coli JMI 2671; E. coli JMI 2671 (VIM-19 (Cpase)), Meropenem + inhibitor at 4 µg/mL",≤0.0312 µg/mL
same,MIC,"E. coli JMI 2671; Escherichia coli, JMI2671, E. coli JMI 2671 (VIM-19 (Cpase)), substance alone",2 µg/mL
same,MIC Aztreonam + inhibitor,E. coli JMI 10767 [7]; [12],≤0.062 µg/mL
same,MIC Ceftazidime + inhibitor,E. coli JMI 10767 [7]; [13],≤0.25 µg/mL
same,MIC Aztreonam + inhibitor,K.pneumo JMI 4109 [8]; [12],≤0.062 µg/mL
same,MIC Ceftazidime + inhibitor,K.pneumo JMI 4109 [8]; [13],≤0.25 µg/mL
same,MIC Meropenem + inhibitor,K.pneumo JMI 4109 [8]; [11],≤0.0312 µg/mL
same,MIC Aztreonam + inhibitor,K. pneumo JMI 4088; [12],1 µg/mL
same,MIC Ceftazidime + inhibitor,K. pneumo JMI 4088; [13],≤0.25 µg/mL
same,MIC Meropenem + inhibitor,K. pneumo JMI 4088; [11],0.25 µg/mL
same,MIC,K. pneumo JMI 2673 [9],> 16 µg/mL
same,MIC Aztreonam + inhibitor,K. pneumo JMI 2681; [12],1 µg/mL
same,MIC Ceftazidime + inhibitor,K. pneumo JMI 2681; [13],≤0.25 µg/mL
same,MIC Meropenem + inhibitor,K. pneumo JMI 2681; [11],0.5 µg/mL
same,MIC,"K. pneumo JMI 2681; substance alone, read-out: MIC",> 16 µg/mL
same,MIC Aztreonam + inhibitor,E. cloacae JMI 36; [12],>4 µg/mL
same,MIC Ceftazidime + inhibitor,E. cloacae JMI 36; [13],0.5 µg/mL
same,MIC Meropenem + inhibitor,E. cloacae JMI 36; [11],0.062 µg/mL
same,MIC,"E. cloacae JMI 36; Enterobacter cloacae, JMI36, substance alone, read-out: MIC",> 16 µg/mL
same,MIC Aztreonam + inhibitor,K. pneumo JMI 2693; [12],0.25 µg/mL
same,MIC Ceftazidime + inhibitor,K. pneumo JMI 2693; [13],≤0.25 µg/mL
same,MIC Meropenem + inhibitor,K. pneumo JMI 2693; [11],≤0.0312 µg/mL
same,MIC,K. pneumo JMI 2693; substance alone,8 µg/mL
same,MIC Aztreonam + inhibitor,E. coli JMI 2692; [12],≤0.062 µg/mL
same,MIC Ceftazidime + inhibitor,E. coli JMI 2692; [13],≤0.25 µg/mL
same,MIC Meropenem + inhibitor,E. coli JMI 2692; [11],≤0.0312 µg/mL
same,MIC,"E. coli JMI 2692; Escherichia coli, JMI2692, substance alone, read-out: MIC",2 µg/mL
same,MIC,E. coli JMI 10770 [10],> 16 µg/mL
